Patent US6548268B1, “Chromogenic medium for detecting Staphylococcus aureus” (priority 1999, dated 2003)

Legend:
[1] = system: Staphylococcus aureus; settings: chromogenic agent in culture medium
Text: (§1) The term “chromogenic agent” is understood to denote a compound which changes color in the presence of a specific strain, in particular under the effect of the enzymatic system of said strain.

[2] = system: Streptococcus strains; settings: chromogenic agent in culture medium; a large number of Streptococcus strains
Text: as §1

[3] = system: Staphylococcus aureus; experiment: Growth inhibition in the culture medium; format: cell-based; settings: deferoxamine in the culture medium
Text: The concentration used will preferably be between 0.010 and 0.100 g/l.

| Molecule | Staining in the presence of S. aureus [1] | Staining of Streptococcus strains [2] | Inhibition of growth of Staphylococcus aureus [3] |
| --- | --- | --- | --- |
| 5-bromo-4-chloro-3-indoxyl galactoside | negative |  |  |
| 5-bromo-4-chloro-3-indoxyl glucoside | without staining | stains blue |  |
| 5-bromo-4-chloro-3-indoxyl glucuronide | negative |  |  |
| 5-bromo-6-chloro-3-indoxyl phosphate | mauve staining |  |  |
| CC(=O)N(O)CCCCCNC(=O)CCC(=O)N(O)CCCCCNC(=O)CCC(=O)N(O)CCCCCN [deferoxamine] |  |  | without inhibiting |
